Reference: paper PMC9515143, “Phosphorylation of Jhd2 by the Ras-cAMP-PKA(Tpk2) pathway regulates histone modifications and autophagy” (Nature Communications, 2022)

Columns and labels:
Format in all cases: cell-based, budding yeast (Saccharomyces cerevisiae)
[1] = system: H3K4me3; assay: Western blot of H3K4me3 in yeast cells treated with glucose, 2-DG, FBP or pyruvate; details: WT cells, YP medium with different glucose concentrations, 0.5 hr
Source text: To examine the effect of glucose on histone modifications, we grew yeast cells in 2% glucose-containing medium (YPD) until log phase. Cells were collected and then grown in the medium containing different concentrations of glucose for 0.5 hr.
PKA is activated by cyclic AMP (cAMP), which binds to its inhibitory subunit, Bcy1 and causes its dissociation (Fig. 1g). We thus examined H3K4me3 in deletion mutants of cAMP phosphodiesterases PDE1 and PDE2, which encode enzymes to hydrolyze cAMP and inactivate PKA[39],[40]. […] To test whether the Ras-cAMP-PKA pathway mediates glucose-induced H3K4me3, we examined H3K4me3 in ras1Δ and ras2Δ mutants. […] Ras1/2 can be activated by glycolysis-derived fructose-1,6-biphosphate (FBP) via Cdc25[6] (Fig. 1g).
(§1) To examine the effect of glucose on histone modifications, yeast cells were grown in 2% glucose-containing YPD (Yeast Extract Peptone Dextrose) medium until OD600 of 0.7–1.0. Cells were then collected, washed and resuspended in YP medium for 3 hr followed by treatment with different concentrations of glucose for 0.5 hr. For 1NM-PP1 (MCE, HY-13804) treatment, cells were grown in 2% YPD until OD600 of 0.7–1.0. Cells were then treated with 25 μM 1NM-PP1 for 0.5 hr. For FBP and pyruvate treatment, cells were pre-treated with Zymolase (Mpbio, 08320921) to increase the permeability. In brief, cells were grown in YPD medium until OD600 of 0.7–1.0, centrifuged and resuspended in 1 ml SB buffer (100 mM Sorbitol, 20 mM Tris pH 7.4). 10 μl Zymolase was then added and incubated at 30 °C for 15 min. The spheroplasts were washed and cultured in YPD medium containing different concentrations of FBP and pyruvate for 3 hr.
(§2) Cells were grown in 5 ml YPD or selective medium until OD600 of 0.7–1.0. Cells were harvested and lysed in alkaline lysis buffer (2 M NaOH, 8% 2-mercaptoethanol). After centrifugation, the protein pellet was resuspended in 150 μl 2×SDS-sample buffer. Protein samples were separated by 8–15% SDS-PAGE and transferred to PVDF membrane. The blots were probed with primary antibodies followed by incubation with horseradish peroxidase-labelled IgG secondary antibodies. The protein bands were visualized using the ECL Chemiluminescence Detection Kit (Bio-Rad, 170–5061) and quantified with Image J software (v.1.8.0).

[2] = system: H3R2me2a; assay: Western blot of H3R2me2a after glucose; details: for H3R2me2a/H3: 0.5 hr
Experimental: as §1, §2
Supplementary Fi g . […] WT (a) and H2B-F LA G cel ls (b) wer e grown in YPD medium until OD600 of 0.7.
Cells were th en tr eat ed with YP medium supplement ed with differen t concentrations of glucos e for 0.5 hr. C ells were h ar vested an d the ex tract ed histones w er e anal yz ed by Western blots with indicat ed ant ibodies. To d et ect H2B monoubiquitination, H2B-F LAG strain w as used and d et ect ed with anti -F LAG ant ibody. Th e upper bands ar e monoubiquitinat ed H2B-F LAG. c E ff e c t of gl ucose on histone modifications in WT and ubp8∆ ubp10∆ mutant. WT and ubp8∆ ubp10∆ mut ant w er e gro wn in YPD medium unti l OD600 of 0.7. Cells wer e th en treated with YP medium supplem ent ed with di fferent con cen tr ations of gl u cos e fo r 0.5 hr. d Gluco se has no effect on the activit y of C O M PA S S . Spp1-TA P cells wer e grown in YPD medium until OD600 of 1.5. Cells were h arv est ed and then treat ed with YP + 0.05% glucos e and YP + 4% gl u cos e for 0.5 hr. Spp1-cont aining COMPASS (Spp1-CBP ) was then p urifi ed by tand em affinit y puri fi cati on ( TA P ) . Th e in vitro hi stone meth yltransferase assa y was p er form ed wit h purifi ed C O M PA S S and in vitro assembl ed nucl eosom es. e E ff e c t of the m TO R pathwa y on H3K4 meth ylation. […]
For Supplem ent ar y Fi g. 1b, e-g, i-k, d at a r ep res ent means ± SEM; n=3 i ndependent ex perim ents. For Supplem entar y Fi g. 1c, d ata represent means ± SEM; n=4 independent ex periments. Tw o -sided t-tests were used for statistical analysis.

[3] = system: Bcy1; assay: Dissociation of Tpk1, Tpk2, Tpk3 from Bcy1 after glucose, Co-IP; details: 2% glucose, 0-30 min
Experimental: Yeast whole cell extract was prepared by vortexing with glass beads and then digested with Micrococcal Nuclease (MNase). Pre-cleared cell lysate was incubated with anti-FLAG M2 agarose for 1 hr at 4 °C. The beads were washed three times with IP washing buffer (40 mM HEPES-KOH, pH7.5, 0.1% NP-40, 10% glycerol, 1 mM PMSF, 350 mM NaCl, 2 μg/ml leupeptin, 1 μg/ml pepstatin A) and boiled in SDS-sample buffer for 5 min. Supernatants from the boiled beads were subjected to SDS-PAGE and Western blots.
Supplementary Fi g . 11 Analysis of PKA subunits subcellular localization, expression and Bcy1 dissociation kinetics. a Subcellul ar localiz ation of Tpk1, Tpk2 and Tp k3. Cells (Tpk1-FLAG, Tpk2- FLAG, Tpk3- F LA G) wer e grown in YP+2% glucos e medium. Th e localization of Tpk1, Tpk2 and Tp k3 was detect ed with ant i-F LAG antibod y. […] Bc y1 was immunoprecipitated from cells (Tpk1- FLAG/Bcy1- M yc, Tpk2- FLAG/Bcy1-M yc, Tpk3- FLAG/Bcy1- M yc) with anti-M yc antibody.
For Supplem ent ar y Fi g. 11 b, dat a r ep res ent m ean s ± SEM; n=3 independent ex perim ents. Tw o -sid ed t-t ests were us ed for statistical […]
(1 picture or pasted object on this page, not shown here)

## OC[C@H]1OC(O)[C@H](O)[C@@H](O)[C@@H]1O (stereo partly drawn) [glucose]
[1]
  H3K4me3 level: induced H3K4me3 in a dose-dependent manner
[2]; 0.5% glucose, relative to 0.05% glucose = 1, replicate 1
  H3R2me2a/H3: 1.016
[2]; 0.5% glucose, relative to 0.05% glucose = 1, replicate 2
  H3R2me2a/H3: 0.8082
[2]; 0.5% glucose, relative to 0.05% glucose = 1, replicate 3
  H3R2me2a/H3: 1.063
[2]; 1% glucose, relative to 0.05% glucose = 1, replicate 1
  H3R2me2a/H3: 1.0068
[2]; 1% glucose, relative to 0.05% glucose = 1, replicate 2
  H3R2me2a/H3: 0.9832
[2]; 1% glucose, relative to 0.05% glucose = 1, replicate 3
  H3R2me2a/H3: 1.068
[2]; 2% glucose, relative to 0.05% glucose = 1, replicate 1
  H3R2me2a/H3: 0.9685
[2]; 2% glucose, relative to 0.05% glucose = 1, replicate 2
  H3R2me2a/H3: 0.8294
[2]; 2% glucose, relative to 0.05% glucose = 1, replicate 3
  H3R2me2a/H3: 0.8742
[2]; 4% glucose, relative to 0.05% glucose = 1, replicate 1
  H3R2me2a/H3: 1.047
[2]; 4% glucose, relative to 0.05% glucose = 1, replicate 2
  H3R2me2a/H3: 0.9174
[2]; 4% glucose, relative to 0.05% glucose = 1, replicate 3
  H3R2me2a/H3: 0.9548
[2]; glucose 0.5 hr, Western blot
  H3R2me2a level: had no significant effect on H3R2me2a
[3]
  dissociation of Tpk2 from Bcy1 compared with Tpk1 and Tpk3: Tpk2 dissociated with Bcy1 with a faster kinetics than Tpk1 and Tpk3
